Laboratory results as given in ChEMBL document CHEMBL1201862, “PubChem BioAssay data set” (2004).
The source made the active and inactive calls.

Key:
Vero [1] = assay: viability of Vero cells under compound – cytotoxicity control for flavivirus capping enzyme inhibitors (AID 588742); type: functional; settings: Chlorocebus sabaeus
[2] = viability loss in THP-1 monocytes – THP-1 cells, cytotoxicity control for Vif-APOBEC3G degradation inhibitor project, dose response (AID 1117359); type: functional; settings: THP-1
[3] = molecular target: T1, Short transient receptor potential channel 4 (Mus musculus, UniProt Q9QUQ5); assay: calcium entry via TRPC4 opening agents – cell-based, HEK293 TRPC4/mu-opioid, Fluo-4 calcium, dose response (AID 434937); type: functional
T1 sequence (Q9QUQ5 whole entry): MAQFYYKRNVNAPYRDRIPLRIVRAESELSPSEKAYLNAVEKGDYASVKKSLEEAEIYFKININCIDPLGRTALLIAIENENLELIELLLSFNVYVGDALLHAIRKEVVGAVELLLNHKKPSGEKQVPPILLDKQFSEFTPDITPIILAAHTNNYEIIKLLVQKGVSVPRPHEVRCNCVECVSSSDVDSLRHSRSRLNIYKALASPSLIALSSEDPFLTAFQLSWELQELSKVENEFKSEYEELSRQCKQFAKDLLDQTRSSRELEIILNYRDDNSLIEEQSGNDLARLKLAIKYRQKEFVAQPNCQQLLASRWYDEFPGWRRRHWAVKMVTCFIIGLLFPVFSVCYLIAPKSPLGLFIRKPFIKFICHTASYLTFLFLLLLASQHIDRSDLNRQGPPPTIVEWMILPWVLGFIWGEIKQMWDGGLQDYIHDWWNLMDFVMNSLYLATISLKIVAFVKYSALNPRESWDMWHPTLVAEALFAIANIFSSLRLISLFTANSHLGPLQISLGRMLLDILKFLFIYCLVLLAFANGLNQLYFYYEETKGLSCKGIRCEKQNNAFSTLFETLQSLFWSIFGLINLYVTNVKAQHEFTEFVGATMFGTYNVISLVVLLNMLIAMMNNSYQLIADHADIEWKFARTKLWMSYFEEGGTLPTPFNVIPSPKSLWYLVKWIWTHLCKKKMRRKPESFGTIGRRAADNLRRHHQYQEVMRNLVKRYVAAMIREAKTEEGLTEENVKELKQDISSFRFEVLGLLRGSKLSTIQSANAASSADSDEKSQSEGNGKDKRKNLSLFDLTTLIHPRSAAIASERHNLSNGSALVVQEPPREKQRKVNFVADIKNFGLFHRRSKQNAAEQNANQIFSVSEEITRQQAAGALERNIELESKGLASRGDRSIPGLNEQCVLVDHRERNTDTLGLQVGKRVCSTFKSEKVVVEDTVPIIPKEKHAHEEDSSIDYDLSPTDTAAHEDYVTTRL

[4] = molecular target: Delta-type opioid receptor (Homo sapiens, UniProt P41143); assay: Counterscreen for agonists of heterodimerization of the mu 1 (OPRM1) and delta 1 (OPRD1) opioid receptors: Luminescence-based cell-based high throughput dose response assay to identify agonists of OPRD1 homodimerization. [Related pubchem assays (depositor defined):AID504326, AID504355, AID504692, AID504904, AID504905]; type: functional
Mu-type opioid receptor = Mu-type opioid receptor (Homo sapiens, UniProt P35372); assay: Counterscreen for agonists of heterodimerization of the mu 1 (OPRM1) and delta 1 (OPRD1) opioid receptors: Luminescence-based cell-based high throughput dose response assay to identify agonists of OPRM1 homodimerization.; type: functional;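 further: U2OS cells expressing OPRM1 and beta-arrestin as split beta-galactosidase partners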
[5] = molecular target: 5-hydroxytryptamine receptor 5A (Homo sapiens, UniProt P47898); assay: Counterscreen for agonists of OPRM1-OPRD1 heterodimerization: luminescence-based cell-based high throughput dose response assay to identify agonists of 5-hydroxytryptamine (serotonin) 5A receptor (HTR5A). [Related pubchem assays (depositor defined):AID504326, AID504355, AID504692, AID504904, AID504905]; type: functional
Large T antigen = Large T antigen (Simian virus 40, UniProt P03070); type: functional, Betapolyomavirus macacae;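 further: Confirmatory-stage PubChem screen for compounds that inhibit SV40 T antigen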
[6] = Trypanosoma cruzi growth suppression in host cells – NIH3T3 host cells, beta-gal luminescence, confirmation (AID 2044); type: functional, cell-based;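 further: intracellular parasites grown in NIH/3T3 mouse fibroblasts as host cells; luminescent beta-galactosidase reporter signal from transgenic T. cruzi replicating inside host cells; inhibitors lower the luminescence signal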
[7] = NIH3T3 cell viability loss – ATP luminescence, mouse fibroblasts, counter-screen, dose response (AID 2010); type: functional, cell-based;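 further: cells exposed to compound for about 90 hours before reading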
[8] = molecular target: T1, Short transient receptor potential channel 4; assay: block of DAMGO-driven TRPC4 calcium entry – cell-based, HEK293 TRPC4/mu-opioid, Fluo-4 calcium, dose response (AID 434942); type: functional;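 further: potency of inhibitors blocking the TRPC4 calcium response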
INS1 = assay: INS-1E survival protection against cytokine death – cell-based, luminescence, retest, dose response (AID 449756); type: functional; settings: Rattus norvegicus;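 further: cell death triggered by IL-1 beta plus TNF-alpha plus IFN-gamma mixture; protective hits raise ATP signal compared with cytokine alone wells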
Genome polyprotein = Genome polyprotein (dengue virus type 2, UniProt P29990); assay: flavivirus cap methylation enzyme inhibition – biochemical, confirmation dose response, primary screen (AID 588689); type: functional
[9] = molecular target: T2, Hepatocyte nuclear factor 4-alpha (Homo sapiens, UniProt P41235); type: functional, cell-based;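 further: biochemical luminescence-based dose-response counterscreen measuring inhibition of HNF4 dimerization, run alongside a screen for blockers of ABHD5–perilipin-5 interaction; split luciferase complementation of HNF4 fusion proteins in cell lysate measuring dimerization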
T2 sequence (P41235 whole entry): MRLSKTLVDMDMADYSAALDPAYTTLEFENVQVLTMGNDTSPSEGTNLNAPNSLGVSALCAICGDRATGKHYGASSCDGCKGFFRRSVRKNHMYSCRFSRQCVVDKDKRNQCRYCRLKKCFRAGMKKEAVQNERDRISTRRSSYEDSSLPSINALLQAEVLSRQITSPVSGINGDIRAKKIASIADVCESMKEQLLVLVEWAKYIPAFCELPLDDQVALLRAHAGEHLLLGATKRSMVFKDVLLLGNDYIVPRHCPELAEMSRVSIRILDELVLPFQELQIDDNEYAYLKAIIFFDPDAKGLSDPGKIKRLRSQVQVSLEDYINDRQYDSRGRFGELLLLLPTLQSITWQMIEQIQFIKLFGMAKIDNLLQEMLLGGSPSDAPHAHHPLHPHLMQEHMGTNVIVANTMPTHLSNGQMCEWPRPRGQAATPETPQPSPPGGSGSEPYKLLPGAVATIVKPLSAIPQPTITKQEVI

[10] = reduced cellular PGC1a acetyl-lysine signal – cell-based, cherry-picked samples, dose response (AID 720514); type: functional;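 further: potency may reflect raised or lowered acetylation signal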
CHO-K1 = assay: Counterscreen for antagonists of the orexin 1 receptor (OX1R; HCRTR1): Homogeneous time resolved fluorescence (HTRF)-based cell-based dose response assay to identify antagonists of the parental CHO-K1 cell line. [Related pubchem assays (depositor defined):AID434989, AID435008, AID463079, AID485270, AID492963, AID492964, AID492965, AID493232, AID504699, AID504701]; type: functional; settings: Cricetulus griseus;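 further: potency for inhibition of ATP-stimulated IP1 production as antagonists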
[11] = Counterscreen for antagonists of the orexin 1 receptor (OX1R; HCRTR1): Fluorescence-based cell-based high throughput dose response assay to identify antagonists of the parental CHO cell line. [Related pubchem assays (depositor defined):AID434989, AID435008, AID463079, AID485270, AID492963, AID492964, AID492965, AID493232, AID504699, AID504701]; type: functional
[12] = molecular target: T3, Orexin/Hypocretin receptor type 1 (Homo sapiens, UniProt O43613); assay: Homogeneous Time Resolved Fluorescence (HTRF)-based cell-based high throughput dose response assay for antagonists of the orexin 1 receptor (OX1R; HCRTR1). [Related pubchem assays (depositor defined):AID434989, AID435008, AID463079, AID485270, AID492963, AID492964, AID492965, AID493232, AID504717, AID504718]; type: functional
T3 sequence (O43613 whole entry): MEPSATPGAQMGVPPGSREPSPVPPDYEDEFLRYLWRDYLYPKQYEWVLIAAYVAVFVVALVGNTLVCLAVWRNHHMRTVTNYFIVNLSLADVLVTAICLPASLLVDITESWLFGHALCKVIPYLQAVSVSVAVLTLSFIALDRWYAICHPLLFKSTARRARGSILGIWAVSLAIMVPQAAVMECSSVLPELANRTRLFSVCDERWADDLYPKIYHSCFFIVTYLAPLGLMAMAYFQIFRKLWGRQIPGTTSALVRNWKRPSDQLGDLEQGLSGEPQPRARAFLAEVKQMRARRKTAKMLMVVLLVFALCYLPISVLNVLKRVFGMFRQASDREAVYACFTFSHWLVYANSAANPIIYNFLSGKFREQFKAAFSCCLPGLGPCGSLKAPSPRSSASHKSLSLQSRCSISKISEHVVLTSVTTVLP

[13] = molecular target: T3, Orexin/Hypocretin receptor type 1; assay: Fluorescence-based cell-based high throughput dose response assay for antagonists of the orexin 1 receptor (OX1R; HCRTR1). [Related pubchem assays (depositor defined):AID434989, AID435008, AID463079, AID485270, AID492963, AID492964, AID492965, AID493232, AID504717, AID504718]; type: functional
Orexin receptor type 2 [14] = molecular target: T4, Orexin receptor type 2 (Homo sapiens, UniProt O43614); assay: Counterscreen assay for antagonists of the orexin 1 receptor (OX1R; HCRTR1): Fluorescence-based cell-based dose response assay for antagonists of the orexin 2 receptor (OX2R; HCRTR2), run by assay provider.; type: functional
T4 sequence (O43614 whole entry): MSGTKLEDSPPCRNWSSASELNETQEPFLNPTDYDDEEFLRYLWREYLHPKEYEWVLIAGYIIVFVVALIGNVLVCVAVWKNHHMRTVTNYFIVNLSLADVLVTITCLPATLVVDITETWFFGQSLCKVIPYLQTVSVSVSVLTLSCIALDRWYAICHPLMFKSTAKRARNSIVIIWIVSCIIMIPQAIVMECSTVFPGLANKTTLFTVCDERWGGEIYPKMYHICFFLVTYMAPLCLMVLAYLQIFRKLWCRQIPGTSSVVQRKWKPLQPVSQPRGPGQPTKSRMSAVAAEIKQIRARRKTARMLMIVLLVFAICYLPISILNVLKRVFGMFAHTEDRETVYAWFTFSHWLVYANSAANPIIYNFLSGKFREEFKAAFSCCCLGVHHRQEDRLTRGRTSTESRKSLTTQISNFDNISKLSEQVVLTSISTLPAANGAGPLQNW

Orexin receptor type 2 [15] = molecular target: T4, Orexin receptor type 2; assay: Counterscreen assay for antagonists of the orexin 1 receptor (OX1R; HCRTR1): Homogeneous Time Resolved Fluorescence (HTRF)-based cell-based dose response assay for antagonists of the orexin 2 receptor (OX2R; HCRTR2), run by assay provider.; type: functional
Vero [16] = assay: cells; type: functional, cell-based; settings: Chlorocebus sabaeus
Vero [17] = assay: cells; type: functional; settings: Chlorocebus sabaeus
Galanin receptor type 3 = molecular target: T5, Galanin receptor type 3 (Homo sapiens, UniProt O60755); assay: Fluorescence-based cell-based primary high throughput dose response assay to identify antagonists of the Galanin Receptor 3 (GalR3).; type: functional
T5 sequence (O60755 whole entry): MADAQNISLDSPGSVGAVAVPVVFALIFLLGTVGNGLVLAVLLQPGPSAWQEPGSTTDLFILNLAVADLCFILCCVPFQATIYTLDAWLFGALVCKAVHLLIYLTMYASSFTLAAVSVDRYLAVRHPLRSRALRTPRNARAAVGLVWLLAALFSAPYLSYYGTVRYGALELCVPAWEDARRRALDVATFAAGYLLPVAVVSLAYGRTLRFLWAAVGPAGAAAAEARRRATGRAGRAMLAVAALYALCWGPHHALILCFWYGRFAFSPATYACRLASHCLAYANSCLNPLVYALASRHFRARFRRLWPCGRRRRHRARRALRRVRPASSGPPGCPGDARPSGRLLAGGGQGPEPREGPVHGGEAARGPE

cells = type: functional, cell-based; settings: HEK-CNG
Paired box protein Pax-8 = Paired box protein Pax-8 (Homo sapiens, UniProt Q06710); assay: PAX8 transcriptional activity inhibition in RMG-I – RMG-I cells, luciferase, cherry-pick, dose response (AID 687027); type: functional, cell-based;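 further: luciferase reporter driven by Pax8 target thyroperoxidase promoter measured by SteadyGlo luminescence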
Paired box protein Pax-8, sequence (Q06710 whole entry): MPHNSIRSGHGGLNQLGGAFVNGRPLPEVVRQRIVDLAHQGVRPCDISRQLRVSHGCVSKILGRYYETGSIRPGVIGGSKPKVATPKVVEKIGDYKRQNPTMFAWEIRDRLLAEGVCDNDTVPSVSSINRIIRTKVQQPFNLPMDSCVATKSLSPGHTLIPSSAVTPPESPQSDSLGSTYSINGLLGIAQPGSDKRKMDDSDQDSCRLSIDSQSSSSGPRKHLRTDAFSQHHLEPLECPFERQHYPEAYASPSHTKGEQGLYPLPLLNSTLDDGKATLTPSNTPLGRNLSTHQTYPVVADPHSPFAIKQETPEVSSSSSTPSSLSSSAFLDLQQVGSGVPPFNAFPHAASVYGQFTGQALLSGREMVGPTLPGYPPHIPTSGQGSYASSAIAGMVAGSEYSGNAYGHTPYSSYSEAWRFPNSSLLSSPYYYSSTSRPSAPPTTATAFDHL

Delta-type opioid receptor, sequence (P41143 whole entry): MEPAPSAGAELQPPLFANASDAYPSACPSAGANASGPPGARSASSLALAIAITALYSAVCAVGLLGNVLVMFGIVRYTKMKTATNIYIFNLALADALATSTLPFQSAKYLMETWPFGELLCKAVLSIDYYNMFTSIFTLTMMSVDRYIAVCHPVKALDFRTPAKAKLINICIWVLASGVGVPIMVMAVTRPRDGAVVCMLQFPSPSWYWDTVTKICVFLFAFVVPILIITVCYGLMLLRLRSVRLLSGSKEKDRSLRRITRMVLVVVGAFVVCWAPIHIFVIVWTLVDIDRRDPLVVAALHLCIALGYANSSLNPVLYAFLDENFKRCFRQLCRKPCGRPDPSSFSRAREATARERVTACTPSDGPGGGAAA
5-hydroxytryptamine receptor 5A, sequence (P47898 whole entry): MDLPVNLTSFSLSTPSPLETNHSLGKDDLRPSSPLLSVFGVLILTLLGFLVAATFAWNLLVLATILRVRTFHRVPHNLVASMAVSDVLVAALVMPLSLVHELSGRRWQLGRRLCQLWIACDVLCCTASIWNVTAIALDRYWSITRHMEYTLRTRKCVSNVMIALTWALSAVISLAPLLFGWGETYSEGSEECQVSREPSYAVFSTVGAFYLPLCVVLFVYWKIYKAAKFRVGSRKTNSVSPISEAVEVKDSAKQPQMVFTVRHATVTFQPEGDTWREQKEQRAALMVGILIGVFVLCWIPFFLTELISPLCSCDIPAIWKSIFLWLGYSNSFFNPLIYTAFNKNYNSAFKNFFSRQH
Mu-type opioid receptor, sequence (P35372 whole entry): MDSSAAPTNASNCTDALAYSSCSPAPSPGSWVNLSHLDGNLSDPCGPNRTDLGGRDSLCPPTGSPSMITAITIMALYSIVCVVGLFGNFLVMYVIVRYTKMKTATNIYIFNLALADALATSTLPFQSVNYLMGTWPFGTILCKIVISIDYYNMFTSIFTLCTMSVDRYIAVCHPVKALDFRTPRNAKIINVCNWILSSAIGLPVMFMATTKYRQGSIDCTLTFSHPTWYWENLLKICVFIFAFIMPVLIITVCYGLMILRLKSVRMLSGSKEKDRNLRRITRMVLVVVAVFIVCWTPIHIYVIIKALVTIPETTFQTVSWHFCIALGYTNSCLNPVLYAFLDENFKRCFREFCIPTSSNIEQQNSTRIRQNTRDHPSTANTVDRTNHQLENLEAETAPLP
Genome polyprotein, sequence (P29990 2492-3391 limits assumed): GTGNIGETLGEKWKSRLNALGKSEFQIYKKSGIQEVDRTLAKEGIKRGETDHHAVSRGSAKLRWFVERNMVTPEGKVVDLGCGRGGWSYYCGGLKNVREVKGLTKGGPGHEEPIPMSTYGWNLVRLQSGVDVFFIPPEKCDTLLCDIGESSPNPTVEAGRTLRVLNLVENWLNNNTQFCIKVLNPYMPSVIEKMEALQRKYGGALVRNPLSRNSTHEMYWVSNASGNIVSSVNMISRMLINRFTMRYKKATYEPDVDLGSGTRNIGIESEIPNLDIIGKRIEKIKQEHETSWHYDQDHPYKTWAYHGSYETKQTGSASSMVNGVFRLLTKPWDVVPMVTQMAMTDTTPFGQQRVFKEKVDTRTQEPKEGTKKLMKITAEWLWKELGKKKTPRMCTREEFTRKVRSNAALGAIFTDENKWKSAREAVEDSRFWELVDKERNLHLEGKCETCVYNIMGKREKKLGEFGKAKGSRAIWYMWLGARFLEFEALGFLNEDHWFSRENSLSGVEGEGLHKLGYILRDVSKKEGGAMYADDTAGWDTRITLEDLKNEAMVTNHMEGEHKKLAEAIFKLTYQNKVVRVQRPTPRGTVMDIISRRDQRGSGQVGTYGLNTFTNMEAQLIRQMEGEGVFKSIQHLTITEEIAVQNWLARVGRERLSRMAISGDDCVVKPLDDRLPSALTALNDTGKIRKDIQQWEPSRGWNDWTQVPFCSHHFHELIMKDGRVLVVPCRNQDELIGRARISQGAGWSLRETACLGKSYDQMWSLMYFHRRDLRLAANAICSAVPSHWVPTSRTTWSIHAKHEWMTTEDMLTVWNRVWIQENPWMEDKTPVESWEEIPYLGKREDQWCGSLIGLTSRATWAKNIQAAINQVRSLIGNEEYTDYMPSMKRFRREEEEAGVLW
Large T antigen, sequence (P03070 whole entry): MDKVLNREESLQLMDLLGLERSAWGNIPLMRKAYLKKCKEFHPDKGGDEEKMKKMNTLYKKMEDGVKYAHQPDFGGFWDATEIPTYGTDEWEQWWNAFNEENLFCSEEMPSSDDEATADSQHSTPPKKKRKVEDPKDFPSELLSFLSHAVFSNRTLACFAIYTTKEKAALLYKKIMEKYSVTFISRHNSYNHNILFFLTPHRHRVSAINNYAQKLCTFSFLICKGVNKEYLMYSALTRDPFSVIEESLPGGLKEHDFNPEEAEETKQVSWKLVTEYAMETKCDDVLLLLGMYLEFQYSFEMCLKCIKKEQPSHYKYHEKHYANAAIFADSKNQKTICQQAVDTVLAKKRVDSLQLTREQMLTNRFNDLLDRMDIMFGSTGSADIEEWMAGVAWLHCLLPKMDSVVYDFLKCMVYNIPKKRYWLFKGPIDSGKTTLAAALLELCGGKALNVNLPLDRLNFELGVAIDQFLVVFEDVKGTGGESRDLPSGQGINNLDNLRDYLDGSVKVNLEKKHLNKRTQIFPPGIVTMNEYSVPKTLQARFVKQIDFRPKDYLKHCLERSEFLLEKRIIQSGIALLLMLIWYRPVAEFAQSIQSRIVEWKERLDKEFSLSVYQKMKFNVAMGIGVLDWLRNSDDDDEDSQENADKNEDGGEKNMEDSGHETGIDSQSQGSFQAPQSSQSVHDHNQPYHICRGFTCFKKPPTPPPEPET

Oc1ccc(NCc2cccc(OCc3ccccc3)c2)cc1
CC50 (Vero [1]): > 40 µM (active) | CC50 [2]: 36.2 µM (active)

CCCC(=O)NC(C)C(c1cccs1)N1CCN(c2ccccc2)CC1 (stereo not given)
EC50 [3]: 0.267 µM (active) | EC50 [4]: > 92.5 µM (inactive) | EC50 (Mu-type opioid receptor): > 92.5 µM (inactive) | EC50 [5]: > 92.5 µM (inactive)

CCOC(=O)c1c(NC(=O)/C=C/C(=O)O)sc(C)c1-c1ccc(C(C)(C)C)cc1
IC50 (Large T antigen): 20.8 µM (active) | EC50 [6]: 3.42 µM (active) | EC50 [7]: > 60 µM (not active) | EC50 [8]: 5.31 µM (active) | CC50 (Vero [1]): 10.6 µM (active) | AC50 (INS1): 4.33 µM (active) | IC50 (Genome polyprotein): 25.6 µM (active) | IC50 [9]: 17.4 µM (inactive) | AC50 [10]: 32.8 µM (active)

CCOC(=O)c1ccc2[nH]c(C)c(C)c2c1
IC50 (CHO-K1): > 66.3 µM (inactive) | IC50 [11]: > 49.8 µM (inactive) | IC50 [12]: 5.45 µM (active) | IC50 [13]: 20.2 µM (inactive) | IC50 (Orexin receptor type 2 [14]): 18.8 µM (inactive) | IC50 (Orexin receptor type 2 [15]): 13.5 µM (inactive)

COc1ccc(C(CNC(=O)C(C)c2ccc3cc(OC)ccc3c2)N(C)C)cc1 (stereo not given)
EC50 [3]: 0.473 µM (active) | EC50 [4]: > 92.4 µM (inactive) | EC50 (Mu-type opioid receptor): > 92.4 µM (inactive) | EC50 [5]: > 92.4 µM (inactive)

C[C@]12CC[C@H]3[C@@H](CC[C@@]4(O)C[C@@H](O)CC[C@]34C=O)[C@]1(O)CC[C@@H]2C1=CC(=O)OC1
IC50 (Vero [16]): < 0.05 µM (active) | CC50 (Vero [17]): 1.65 µM (active) | IC50 (Galanin receptor type 3): > 29.9 µM (inactive) | EC50 (cells): > 29.9 µM (inactive) | AC50 (Paired box protein Pax-8): 3.39 µM (active)
